In patent US9475789B2, “Use of polyenylpyrrole derivatives for treating inflammation” (WELLHEAD BIOLOGICAL TECHNOLOGY CORP., priority 2014, dated 2016):
Entries after “also recorded” stand apart in the source; their conditions may differ.

Legend:
[1] = tested on: RAW 264.7 cells; assay: AlamarBlue assay for cell viability; format: cell-based, murine; settings: Mus musculus, RAW264.7, cytotoxicity against RAW 264.7 cells, 24 h treatment
Experimental: RAW 264.7 cells were seeded at a density of 5000 cells in 100 μl RPMI 1640 medium with 10% heat-inactivated FBS per well in 96-well flat-bottom plates and incubated for 24 h at 37° C. in a 5% CO2 incubator. Cells were incubated with tested samples for 24 h and the AlamarBlue® assay was used to determine the cytotoxicity of the test samples. The procedure was conducted following the protocol described in the manufacture's instruction (AbD Serotec Ltd).
The aim of this study is to identify non-toxic polyenylpyrrole derivatives which can be used as anti-inflammatory agents. Compounds 1a-n were evaluated for their cytotoxicities against the murine macrophages cell line RAW 264.7 after 24 h treatment.

[2] = tested on: IL-6; assay: IL-6 ELISA, LPS-activated peritoneal macrophages; format: cell-based, C57BL/6 mice; settings: LPS 1 μg/ml 24 h
Experimental: (§1) (A) J774A.1 macrophages (4×10^5/ml), (B) peritoneal macrophages (4×10^5/ml), and (C) JAWSII dendritic cells (4×10^5/ml) were incubated with compound 1h or DMSO for 30 min followed by stimulating with LPS (1 μg/ml) for 24 h, then IL-6 and TNF-α concentration in culture medium were assayed by ELISA. The data are expressed as the mean±SD for three separate experiments. *, **, and *** indicate a significant difference at the level of p<0.05, p<0.01, p<0.001 respectively compared to LPS group.
(§2) The effects of tested samples on IL-1β, TNF-α and IL-6 production were measured by ELISA according to the manufacturer's instruction. In brief, 50 μl of biotinylated antibody reagent and 50 μl of supernatant were added to an anti-mouse IL-1β, TNF-α and IL-6 precoated stripwell plate, and incubated at room temperature for 2 h. After washing the plate three times with washing buffer, 100 μl of diluted streptavidin-HRP concentrate was added to each well and incubated at room temperature for 30 min. The washing process was repeated; then 100 μl of a premixed tetramethylbenzidine substrate solution was added to each well and developed at room temperature in the dark for 30 min. Following the addition of 100 μl of stop solution to each well to stop the reaction, the absorbance of the plate was measured by a microplate reader at 450 nm wavelength.

[3] = tested on: proIL-1β; assay: Western blot of proIL-1β, LPS-activated J774A.1 macrophages; format: cell-based, mouse; settings: compound 30 min, then LPS 6 h
Experimental: (§3) (A) J774A.1 macrophages (1×10^6/ml) and (B) peritoneal macrophages (1×10^5/ml) were incubated with compound 1h for 30 min followed by LPS (1 μg/ml) stimulating for 5.5 h, then the cells were stimulated with ATP (5 mM) for an additional 30 min. The IL-1β in the culture medium was measured by ELISA and the expression of active caspase-1 (p10) was measured by Western blot. In (C) and (D), J774A.1 macrophages (1×10^6/ml) were incubated with LPS (1 μg/ml) for 5.5 h, then cells were incubated with compound 1h for 30 min followed by stimulating with ATP (5 mM) for an additional 30 min. The IL-1β and IL-6 in the culture medium were measured by ELISA and the expression of active caspase-1 (p10) was measured by Western blot. In (E), J774A.1 macrophages (1×10^6/ml) were incubated with compound 1h for 30 min followed by LPS (1 μg/ml) stimulating for 6 h. The expression of NLRP3 and proIL-1β were measured by Western blot.
(§4) Whole cell lysates were separated by SDS-PAGE and electrotransferred to a PVDF membrane. The membranes were incubated in blocking solution—5% nonfat milk in phosphate buffered saline with 0.1% Tween 20—at room temperature for 1 h. Each membrane was incubated with a specific primary antibody at room temperature for 2 h. After washing three times in PBS with 0.1% Tween 20, the membrane was incubated with an HRP-conjugated secondary antibody directed against the primary antibody. […]

[4] = tested on: TNF-α; assay: TNF-α ELISA, RAW 264.7 macrophages; format: cell-based, murine
Experimental: (§5) In (A) and (C), cells (5×10^5/ml) were incubated with polyenylpyrrole derivatives or DMSO (vehicle) for 30 min followed by stimulating with LPS (1 μg/ml) for 24 h, then NO (A), IL-6 and TNF-α (C) concentration in culture medium were assayed by Griess reaction and ELISA, respectively. In (B), cells (5×10^5/ml) were pretreated with polyenylpyrrole derivatives or DMSO for 30 min followed by stimulating with LPS (1 μg/ml) for 24 h, then the protein expression of iNOS and COX-2 were assayed by Western blot.
as §2

[5] = tested on: NLRP3; assay: Western blot of NLRP3, LPS-activated J774A.1 macrophages; format: cell-based, mouse; settings: compound 30 min, then LPS 6 h
Experimental: as §3, §4

[6] = tested on: LPS-induced NO generation in RAW 264.7 macrophages; assay: NO inhibitory assay (Griess reaction) in LPS-activated macrophages; format: cell-based, murine
Experimental: as §5, with “blot. […] RAW 264.7 cells were seeded in 24-well plates at a density of 5×10^5 cells/ml, and then incubated with or without LPS (1 μg/ml) in the absence or presence of tested samples for 24 h. The effects of the tested samples on NO production were measured indirectly by analysis of nitrite levels using the Griess reaction.” for “blot.”

[7] = tested on: TNF-α; assay: TNF-α ELISA, LPS-activated peritoneal macrophages; format: cell-based, C57BL/6 mice; settings: LPS 1 μg/ml 24 h
Experimental: as §1, §2

[8] = tested on: TNF-α; assay: TNF-α ELISA, LPS-activated J774A.1 macrophages; format: cell-based, murine; settings: J774A.1 cells, LPS 1 μg/ml 24 h
Experimental: as §1, §2

[9] = tested on: caspase-1; assay: Western blot of active caspase-1 (p10), LPS+ATP-activated J774A.1 macrophages; format: cell-based, mouse
Experimental: as §3, §4

O=c1cc(O)cc(/C=C/C=C/C=C/C=C/c2[nH]ccc2Cl)o1 [Compound 1h]
IC50 [1]: > 100 µM | secretion of IL-6 [2]: reduced | LPS-induced proIL-1β expression [3]: inhibited LPS-induced proIL-1β expression in a dose-dependent fashion | TNF-α secretion ([4]; LPS-activated RAW 264.7, LPS 1 μg/ml 24 h): slight reduced by compounds 1h, 1i and 1n, but not significantly | background level of TNF-α ([4]; compound alone, no LPS, data not shown): did not alter | NLRP3 expression [5]: increased NLRP3 expression | EC50 ([6]; Mus musculus, RAW264.7, 50% inhibition of the LPS-induced NO generation, RAW 264.7, LPS 1 μg/ml, 24 h, read-out: ED50 (the source's name)): 15 ± 2 µM | production of NO by LPS-activated cells ([6]; RAW 264.7, LPS 1 μg/ml 24 h, Griess reaction): decreased production; also recorded: decreased the production of NO by LPS-activated cells in a dose-dependent manner | background level of NO ([6]; compound alone, no LPS, RAW 264.7, data not shown): did not alter | secretion of TNF-α [7]: reduced | secretion of TNF-α [8]: reduced | caspase-1 activation ([9]; J774A.1, compound before LPS and ATP treatment): significantly inhibited | caspase-1 activation ([9]; LPS-primed J774A.1, compound 30 min before ATP stimulation): not caspase-1 activation
